Laboratory results reported in US10266544B2, “Aryl substituted aminomethyl spectinomycin analogs as antibacterial agents” (ST. JUDE CHILDREN'S RESEARCH HOSPITAL, INC., priority 2013, dated 2019).
Structures can show the parent of a compound that is named as a salt. Where two headings read alike, the source gives them in different places.

How the values were obtained:
[1] = test system: Bacillus anthracis, Sterne 34F2; assay: microbe, parasite or virus in culture; format: cell-based; settings: STERNE34F2, read-out: MIC B.a.
[2] = test system: Bacillus subtilis (ATCC 23857); assay: MIC determination, microbroth dilution; format: cell-based; settings: ATCC23857; Bacillus subtilis (ATCC 23857); read-out: MIC B.s.
[3] = test system: Staphylococcus aureus (ATCC 29213); assay: MIC determination, microbroth dilution; format: cell-based; settings: ATCC29213; Staphylococcus aureus (ATCC 29213); read-out: MIC S.a.
[4] = test system: acinetobacter baumannii (ATCC 19606); assay: MIC determination, microbroth dilution; format: cell-based; settings: ATCC19606
[5] = test system: Escherichia coli (ATCC 700926); assay: MIC determination, microbroth dilution; format: cell-based; settings: ATCC700926; Escherichia coli (ATCC 700926); read-out: MIC E.c.
[6] = test system: Klebsiella pneumoniae (ATCC 33495); assay: MIC determination, microbroth dilution; format: cell-based; settings: ATCC33495
[7] = test system: Pseudomonas aeruginosa (PA01); assay: MIC determination, microbroth dilution; format: cell-based
[8] = test system: Proteus mirabilis (ATCC 25933); assay: MIC determination, microbroth dilution; format: cell-based; settings: ATCC25933
[9] = test system: Haemophilus influenza (ATCC 49247); assay: microbe, parasite or virus in culture; format: cell-based; settings: ATCC49247; Haemophilus influenza; 4 μg per disc; range of at least two experiments; read-out: Zone of inhibition H.i.
[10] = test system: Legionella pneumophila (ATCC 33153); assay: microbe, parasite or virus in culture; format: cell-based; settings: ATCC33153, 72 h, read-out: Zone of inhibition L.p.
[11] = test system: Neisseria meningitides (ATCC 13077); assay: Disc diffusion assay; format: cell-based; settings: ATCC13077, 4 μg per disc, read-out: Zone of inhibition N.m.
[12] = test system: Neisseria gonorrhoeae (ATCC 49226); assay: Disc diffusion assay; format: cell-based; settings: ATCC49226, 4 μg per disc, read-out: Zone of inhibition N.g.
[13] = test system: Neisseria gonorrhoeae (ATCC 49226); assay: Agar MIC determination (Alamar Blue); format: cell-based; settings: ATCC49226, agar MIC, read-out: MIC N.g.
Bacillus anthracis = assay: microbe, parasite or virus in culture; format: cell-based; settings: read-out: MIC B.a.
[14] = test system: live vaccine strain (LVS) of Francisella tularensis; assay: microbe, parasite or virus in culture; format: cell-based; settings: Francisella tularensis, read-out: MIC F.t.
[15] = test system: Streptococcus pneumoniae clinical isolates representing several serotypes; assay: MIC determination, Streptococcus pneumoniae panel of clinical isolates (Table 7); format: cell-based; settings: for MIC: Streptococcus pneumoniae
S. pneumoniae D39x = assay: Mouse challenge, mouse model of lung infection; format: in vivo; settings: p<0.02
Procedure: Mice were treated with a 5 mg/kg dose b.i.d. of spectinomycin (indicated as “SPC” in the figure) or compound 2 (the compound number refers to the compound number and associated structure shown in Table 1), or vehicle. (Panel B) The bacterial burden of mice at 18 hours post-challenge with S. pneumoniae D39x. (Panel C) Representative bioluminescent images of mice at 72 hours post challenge.
All experimental animal protocols were approved by the St. Jude Children's Research Hospital Institutional Animal Care and Use Committee. Seven week old, female BalbC/J mice (Jackson Labs, Bar Harbor, Me.) we utilized in these studies. All mice were maintained in BSL2 facilities and all experiments were done under inhaled isoflurane (2.5%). Bacteria (strain D39x) were introduced by intranasal administration of 2×10^7 CFU in 25 μL PBS. Mice received no treatment, plasmalyte A (vehicle control), ampicillin (100 mg/kg), spectinomycin (50, 25, 5 mg/kg) or the respective compounds (50, 25, 5 mg/kg) at dosages indicated. Antibiotics were administered in a volume of 100 μL by subcutaneous […] starting at 18 hours post challenge, a time point when the mice have developed pneumonia and bacteria have translocated into the bloodstream. Mice were subsequently dosed every 12 hours until 96 hours post challenge. Mice were monitored daily for signs of infection and weight loss. Differences in time to death were compared via Kaplan-Meier survival estimates. Bacterial density in blood was quantified at 24, 48, 72, and 96 hours post infection via blood collection, serial dilution, and plating. Groups were then compared by Mann-Whitney to determine statistical significance. At 8 days following challenge, surviving mice were euthanized and bacterial loads in lungs determined by homogenization followed by serial dilution and plating. In all instances, surviving mice had completely cleared bacteria from both the lungs and the bloodstream by this time point.
Compound 2 was tested for anti-pneumococcal activity in mice as described above. […]

Listeria monocytogenes = assay: MIC determination (Table 6); format: cell-based
Moraxella catarrhalis = assay: MIC determination (Table 6); format: cell-based

## CN[C@@H]1[C@H](O)[C@H](NC)[C@H]2O[C@]3(O)[C@H](O[C@@H]2[C@H]1O)O[C@H](C)C[C@@]3(O)CNCc1ccc(F)cc1 [compound 2, 3′-(R)-3′-[(4-fluoro)benzylaminomethyl)]dihydrospectinomycin Trihydrochloride]
[1]
  MIC: 25 µg/mL
[2]
  MIC: 3.1 µg/mL
[3]
  MIC: 25 to 50 µg/mL
[4]
  MIC: > 200 µg/mL
[5]
  MIC: 25 µg/mL
[6]
  MIC: 100 to 200 µg/mL
[7]
  MIC: 100 to 200 µg/mL
[8]
  MIC: > 200 µg/mL
[9]
  zone of inhibition at 4 µg/disc: 17 to 19 mm
[10]
  zone of inhibition at 4 µg/disc: 32 to 49 mm
[11]
  zone of inhibition at 4 µg/disc: 19 to 20 mm
[12]
  zone of inhibition at 4 µg/disc: 16 to 19 mm
[13]
  MIC: 25 µg/mL
Bacillus anthracis
  MIC: 25 µg/mL
[14]
  MIC: 1.6 to 3.1 µg/mL
[15]
  susceptibility of strains with mono-resistance to penicillin, streptomycin, and erythromycin: highly susceptible
[15]; BAA1407, S. pneumoniae BAA-1407, Macrolide Resistant, read-out: MIC BAA-1407
  MIC: 6.3 µg/mL
[15]; S. pneumoniae A66.1x, Drug Susceptible, read-out: MIC A66.1x
  MIC: 1.6 µg/mL
[15]; S. pneumoniae BHN97x, Drug Susceptible, read-out: MIC BHN97x
  MIC: 1.6 µg/mL
[15]; S. pneumoniae D39X, Drug Susceptible, read-out: MIC D39X
  MIC: 1.6 µg/mL
[15]; S. pneumoniae Daw7, PenG Resistant, read-out: MIC Daw7
  MIC: 3.1 µg/mL
[15]; S. pneumoniae Daw8, PenG Resistant, read-out: MIC Daw8
  MIC: 3.1 µg/mL
[15]; S. pneumoniae Daw9, PenG Resistant, read-out: MIC Daw9
  MIC: 3.1 µg/mL
[15]; S. pneumoniae Daw62, PenG Resistant, read-out: MIC Daw62
  MIC: 3.1 µg/mL
[15]; S. pneumoniae Daw64, PenG Resistant, read-out: MIC Daw64
  MIC: 3.1 µg/mL
[15]; S. pneumoniae OVA6, Macrolide Resistant, read-out: MIC OVA6
  MIC: 3.1 µg/mL
[15]; S. pneumoniae T4X, Drug Susceptible, read-out: MIC T4X
  MIC: 3.1 µg/mL
S. pneumoniae D39x; 5 mg/Kg BID subcutaneous, from 18 hours post intranasal challenge, vs vehicle and spectinomycin
  survival: significantly improved survival
S. pneumoniae D39x; 48 hours post-challenge, vs spectinomycin and vehicle
  bacterial burden in the blood: reduced significantly
Listeria monocytogenes
  MIC: 6.3 µg/mL
Moraxella catarrhalis
  MIC: 3.1 µg/mL
